For this assay, the target named is T1, P2Y6 receptor (Homo sapiens, UniProt Q15077).
T1 construct: expressed in transfected cells; host or cells: 1321N1 human astrocytoma cells
T1 sequence (Q15077 whole entry): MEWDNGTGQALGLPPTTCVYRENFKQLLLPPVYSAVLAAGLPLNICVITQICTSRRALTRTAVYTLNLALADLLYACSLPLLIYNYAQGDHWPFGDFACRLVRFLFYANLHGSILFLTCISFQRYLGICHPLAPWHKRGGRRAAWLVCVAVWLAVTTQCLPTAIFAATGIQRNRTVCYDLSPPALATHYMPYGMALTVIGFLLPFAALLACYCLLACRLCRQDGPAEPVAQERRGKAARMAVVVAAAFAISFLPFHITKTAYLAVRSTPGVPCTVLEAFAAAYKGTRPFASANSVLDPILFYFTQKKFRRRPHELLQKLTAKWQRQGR
Briefly: Activation of P2Y6 receptor: receptor-induced Ca2+ changes measured with fluo-4. The assay is classed as cell-based. The settings on record: sodium salts of the test compounds; 1321N1 human astrocytoma cells expressing P2Y6; fluo-4 Ca2+ fluorescence; nonlinear curve fit; read-out: EC50 of synthetic compounds for activation of P2Y6 receptor. The procedure: Synthetic compounds were tested for activation of P2Y6 receptor by measuring receptor induced Ca^2+ changes with the fluorescent Ca^2+ indicator fluo-4. 1321N1 human astrocytoma cell lines either expressing P2Y2, P2Y4 or P2Y6. Receptors were plated into 24-well plates. Two days after plating, fluorometric measurements were made and responses of cells to a serial dilution of the sodium salts of the test compounds were determined. P2Y6 receptor mediated Ca^2+ fluorescent change was determined by normalized accumulation of fluorescent change of 3 timepoints after compound administration subtracted by value from ACSF control. Changes in fluorescent intensity were plotted corresponding to compound concentration in GraphPad.
By EC50 is commonly meant the concentration at which the effect is half-maximal. Turning to `O=c1ccn([C@@H]2O[C@H](COP(=O)(O)OP(=O)(O)O)C(O)C2O)c(=O)n1Cc1ccc(-c2ccccc2)o1` (stereo partly drawn) [Compound 47], the EC50 is below 500 nM. As for `O=c1ccn([C@@H]2O[C@H](COP(=O)(O)OP(=O)(O)O)C(O)C2O)c(=O)n1Cc1cccc(-c2ccccc2)c1` (stereo partly drawn) [Compound 41], the EC50 was below 500 nM. Next, `O=c1ccn([C@@H]2O[C@H](COP(=O)(O)OP(=O)(O)O)C(O)C2O)c(=O)n1Cc1ccc(-c2ccccc2)s1` (stereo partly drawn) [Compound 42]: below 500 nM.

Take `O=c1ccn([C@@H]2O[C@H](COP(=O)(O)OP(=O)(O)O)C(O)C2O)c(=O)n1Cc1ccc(-c2ccccc2)cn1` (stereo partly drawn) [Compound 29]: the EC50 was below 500 nM. With `O=c1ccn([C@@H]2O[C@H](COP(=O)(O)OP(=O)(O)O)C(O)C2O)c(=O)n1Cc1ncc(-c2ccccc2)o1` (stereo partly drawn) [Compound 45] the figure was below 500 nM. With `O=c1ccn([C@@H]2O[C@H](COP(=O)(O)OP(=O)(O)O)C(O)C2O)c(=O)n1Cc1cc(Cc2ccccc2)ccn1` (stereo partly drawn) [Compound 35], the EC50 was below 500 nM. Consider `O=c1ccn([C@@H]2O[C@H](COP(=O)(O)OP(=O)(O)O)C(O)C2O)c(=O)n1Cc1cc(Nc2ccccc2)ccn1` (stereo partly drawn) [Compound 37], for which the EC50 was 500 to 1000 nM. Take `O=c1ccn([C@@H]2O[C@H](COP(=O)(O)OP(=O)(O)O)C(O)C2O)c(=O)n1Cc1ncccc1-c1ccccc1` (stereo partly drawn) [Compound 31]: the EC50 is above 2000 nM. Next, `O=c1ccn([C@@H]2O[C@H](COP(=O)(O)OP(=O)(O)O)C(O)C2O)c(=O)n1Cc1cc(N2CCCCC2)ccn1` (stereo partly drawn) [Compound 40]: above 2000 nM. Regarding `O=c1ccn([C@@H]2O[C@H](COP(=O)(O)OP(=O)(O)O)C(O)C2O)c(=O)n1Cc1cccc(-c2ccccc2)n1` (stereo partly drawn) [Compound 30], the EC50 lay in the range of 1000 to 2000 nM. With `O=c1ccn([C@@H]2O[C@H](COP(=O)(O)OP(=O)(O)O)C(O)C2O)c(=O)n1Cc1cc(Oc2ccccc2)ccn1` (stereo partly drawn) [Compound 36] the figure was below 500 nM. With `O=c1ccn([C@@H]2O[C@H](COP(=O)(O)OP(=O)(O)O)C(O)C2O)c(=O)n1Cc1cc(C2CCCC2)ccn1` (stereo partly drawn) [Compound 38] the figure was 500 to 1000 nM; with `O=c1ccn([C@@H]2O[C@H](COP(=O)(O)OP(=O)(O)O)C(O)C2O)c(=O)n1Cc1cc(C2CCCCC2)ccn1` (stereo partly drawn) [Compound 39], 500 to 1000 nM. Turning to `O=c1ccn([C@@H]2O[C@H](COP(=O)(O)OP(=O)(O)O)C(O)C2O)c(=O)n1Cc1cc(-c2ccncc2)ccn1` (stereo partly drawn) [Compound 32], the EC50 was 1000 to 2000 nM. Next, `O=c1ccn([C@@H]2O[C@H](COP(=O)(O)OP(=O)(O)O)C(O)C2O)c(=O)n1Cc1ncc(-c2ccccc2)s1` (stereo partly drawn) [Compound 43]: below 500 nM; `O=c1ccn([C@@H]2O[C@H](COP(=O)(O)OP(=O)(O)O)C(O)C2O)c(=O)n1Cc1cnc(-c2ccccc2)o1` (stereo partly drawn) [Compound 46]: 500 to 1000 nM; `O=c1ccn([C@@H]2O[C@H](COP(=O)(O)OP(=O)(O)O)C(O)C2O)c(=O)n1Cc1cc(-c2ccccn2)ccn1` (stereo partly drawn) [Compound 34]: 500 to 1000 nM. Next, `O=c1ccn([C@@H]2O[C@H](COP(=O)(O)OP(=O)(O)O)C(O)C2O)c(=O)n1Cc1cnc(-c2ccccc2)s1` (stereo partly drawn) [Compound 44]: 1000 to 2000 nM.

Values taken from patent US20200040025A1, “URIDINE NUCLEOSIDE DERIVATIVES, COMPOSITIONS AND METHODS OF USE” (Tufts University, priority 2016, published 2020).
